From PubChem BioAssay AID1996
≈ marks a conversion by molar mass, not a printed value.

conditions: buffer; pH 7.4; 200.0 µM

Point of comparison: COc1ccc(C)cc1N(CC(=O)N1CCCCCC1)S(C)(=O)=O, solubility kinetic 38.1 µg/mL (≈ 107 µM). Against it:
- COc1ccc(Cn2cnc([N+](=O)[O-])c2)cc1[N+](=O)[O-] — higher, > 41.7 µg/mL
- CCOC(=O)Cn1ccc(NC(=O)c2ccc(F)cc2)n1 — higher, > 43.7 µg/mL
- CC(C)C(NS(=O)(=O)c1ccccc1)C(=O)N1CCCCCC1 (configuration not stated) — higher, > 50.8 µg/mL
- O=C(O)CCC(=O)Nc1nc2ccc([N+](=O)[O-])cc2s1 — higher, > 44.3 µg/mL
- CCOC(=O)c1cc([N+](=O)[O-])sc1NC(=O)CC — 7.2-fold lower, 5.3 µg/mL (≈ 19.5 µM)
- Cn1c(C(=O)O)ccc1S(=O)(=O)N1CCCCCC1 — higher, > 43 µg/mL
- COc1ccc(NC(=O)c2cc(S(=O)(=O)N3CCCC3)oc2C)cc1 — 15-fold lower, 2.5 µg/mL (≈ 6.86 µM)
- O=S(=O)(NCCc1ccccc1)c1ccc(Br)cc1 — 11-fold lower, 3.5 µg/mL (≈ 10.3 µM)
- Cc1ccc(NC(=O)Nc2cccnc2)cc1Cl — 1.6-fold lower, 23.3 µg/mL (≈ 89 µM)
- Cc1cccc(OCCn2cnc(Cl)c2Cl)c1 — within 1.5-fold, 27.7 µg/mL (≈ 102 µM)
- O=C(CSc1ccccc1F)NC(=O)c1ccccc1Br — higher, > 55.2 µg/mL
- C=CCOC(=O)c1sc(NC(=O)c2ccc(OC)cc2)nc1C — lower, < 0.4 µg/mL
- O=C(c1ccc(Cl)cc1)N1CCN(c2cccc3[nH]ccc23)CC1 — within 1.5-fold, 35.6 µg/mL (≈ 105 µM)
- COc1cc(NC(=O)COC(=O)c2ccc([N+](=O)[O-])s2)cc(OC)c1OC — 3.7-fold lower, 10.4 µg/mL (≈ 26.2 µM)
- O=C(CCS(=O)(=O)c1ccccc1)Nc1nncs1 — higher, > 44.6 µg/mL
- Cc1nc2ccc(NC(=O)c3ccc4ccccc4n3)cc2s1 — lower, < 0.2 µg/mL
- Cc1cccn2cc(CCNC(=O)c3cccs3)nc12 — higher, > 42.8 µg/mL
- CCN(Cc1ccccc1)C(=O)COc1ccccc1 — higher, > 40.4 µg/mL
- Cc1ccc(OCCCN2C(=O)C(=O)c3cc(C)ccc32)cc1 — lower, < 0.7 µg/mL
- Fc1cccc(Cc2noc(CN3CCSCC3)n2)c1 — higher, > 44 µg/mL
- CSc1nc(S(=O)(=O)c2ccc(C)cc2)c(Cl)s1 — 3.8-fold lower, 10 µg/mL (≈ 31.3 µM)
- CCC(=O)c1cn(CC(=O)Nc2cc(C)ccc2C)c2ccccc12 — lower, < 0.4 µg/mL
- O=C(c1ccc2c(c1)OCO2)N1CCC(Cc2ccccc2)CC1 — within 1.5-fold, 41.6 µg/mL (≈ 129 µM)
- O=S(=O)(NCCOc1ccccc1F)c1ccc(Cl)cc1F — 6.7-fold lower, 5.7 µg/mL (≈ 16.4 µM)
- C=CCNC(=S)N1CCC(C(=O)c2ccc(F)cc2)CC1 — higher, > 46 µg/mL
- Cn1cnc([N+](=O)[O-])c1Sc1nc2ccccc2[nH]1 — 7.5-fold lower, 5.1 µg/mL (≈ 18.5 µM)
- Cc1cc(S(=O)(=O)Cc2noc(-c3c(C)noc3C)n2)c(C)cc1Cl — lower, < 0.3 µg/mL
- Cc1cc(C)c2cc(C(=O)Nc3ccc4c(c3)OCO4)[nH]c2c1 — lower, < 0.3 µg/mL
- O=C(O)/C=C/C(=O)NCCCc1ccccc1 — 1.9-fold lower, 19.8 µg/mL (≈ 84.9 µM)
- Cc1ccc(CC(=O)NCCN2CCOCC2)cc1 — higher, > 39.4 µg/mL
- CCOC(=O)c1nc2ccccc2c(C)c1C.Cl — 1.5-fold lower, 25.3 µg/mL
- Cc1cc(NS(C)(=O)=O)c(=O)n(Cc2cccc(F)c2)c1 — higher, > 46.6 µg/mL
- CC(=O)Nc1ccc(SCC(=O)Nc2ccc(Cl)cn2)cc1 — 4-fold lower, 9.6 µg/mL (≈ 28.6 µM)
- CC(=O)N(Cc1nc2sc(C)c(C)c2c(=O)[nH]1)C1CCCC1 — 2-fold lower, 19.5 µg/mL (≈ 61 µM)
- COc1ccc2c(CC(=O)OCC(=O)NC(N)=O)coc2c1 — 2.1-fold lower, 18.1 µg/mL (≈ 59.1 µM)
- CCCCS(=O)(=O)N1CCCC(C(=O)Oc2ccc(Cl)cc2)C1 (configuration not stated) — lower, < 0.8 µg/mL
- O=C(CNC(=O)c1ccc(Cl)cc1)N/N=C/c1cccnc1 — higher, > 47.5 µg/mL
- O=C(c1ccc(Br)cc1)N1CCCc2ccccc21 — 2.7-fold lower, 14 µg/mL (≈ 44.3 µM)
- CN1CCN(CCCN2c3ccccc3Sc3ccc(Cl)cc32)CC1.O=S(=O)(O)CCS(=O)(=O)O — 1.9-fold higher, 73.3 µg/mL
- O=[N+]([O-])c1ccc(CN2CCN(c3ccccc3)CC2)o1 — 2.6-fold lower, 14.5 µg/mL (≈ 50.5 µM)
- COc1cc(/C=C/[N+](=O)[O-])ccc1OC(=O)c1cccnc1 — 10-fold lower, 3.7 µg/mL (≈ 12.3 µM)
- Nc1nc(CCl)nc(Nc2ccc3ccccc3c2)n1 — within 1.5-fold, 29.3 µg/mL (≈ 103 µM)
- Cn1cc(-c2ccccc2C(N)=O)c(=O)c2ccccc21 — higher, > 41.7 µg/mL
- O=C(O)c1ccccc1N1C(=O)c2cccc3cccc(c23)C1=O — higher, > 47.6 µg/mL
- O=C(O)c1cncc(SCc2ccccc2)n1 — within 1.5-fold, 34.5 µg/mL (≈ 140 µM)
- C=CCn1c(O)c(C(C)=NCCCn2ccnc2)c(=O)[nH]c1=O — higher, > 47.6 µg/mL
